According to ChEMBL document CHEMBL1201862, “PubChem BioAssay data set” (2004):
Activity calls are given as the source filed them.

Legend:
[1] = target: DNA dC->dU-editing enzyme APOBEC-3A (Homo sapiens, UniProt P31941); assay: SAR analysis of small molecule inhibitors of APOBEC3A DNA Deaminase via a fluorescence-based single-stranded DNA deaminase assay.; assay type: functional; conditions: read-out: IC50_Mean
[2] = target: DNA dC->dU-editing enzyme APOBEC-3G (Homo sapiens, UniProt Q9HC16); assay: APOBEC3G deaminase inhibitors, SAR follow-up, biochemical, fluorescence, single-stranded DNA substrate (AID 602136); assay type: functional; conditions: read-out: IC50_Mean
Chain of DNA dC->dU-editing enzyme APOBEC-3G (Q9HC16 whole entry): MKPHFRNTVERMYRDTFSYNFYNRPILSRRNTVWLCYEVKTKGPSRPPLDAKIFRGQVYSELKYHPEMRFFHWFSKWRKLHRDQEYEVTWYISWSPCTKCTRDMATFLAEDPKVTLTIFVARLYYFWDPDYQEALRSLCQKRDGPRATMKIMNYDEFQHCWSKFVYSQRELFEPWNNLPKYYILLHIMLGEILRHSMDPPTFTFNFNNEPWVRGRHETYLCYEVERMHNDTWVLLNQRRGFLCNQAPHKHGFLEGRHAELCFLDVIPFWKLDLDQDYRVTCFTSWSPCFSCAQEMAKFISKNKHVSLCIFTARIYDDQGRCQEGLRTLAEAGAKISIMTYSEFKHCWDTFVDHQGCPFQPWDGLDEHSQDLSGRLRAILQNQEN

[3] = target: Mitochondrial peptide methionine sulfoxide reductase (Bos taurus, UniProt P54149); assay: Absorbance-based biochemical high throughput dose response assay for activators of Methionine sulfoxide reductase A (MsrA).; assay type: functional
Chain of Mitochondrial peptide methionine sulfoxide reductase (P54149 whole entry): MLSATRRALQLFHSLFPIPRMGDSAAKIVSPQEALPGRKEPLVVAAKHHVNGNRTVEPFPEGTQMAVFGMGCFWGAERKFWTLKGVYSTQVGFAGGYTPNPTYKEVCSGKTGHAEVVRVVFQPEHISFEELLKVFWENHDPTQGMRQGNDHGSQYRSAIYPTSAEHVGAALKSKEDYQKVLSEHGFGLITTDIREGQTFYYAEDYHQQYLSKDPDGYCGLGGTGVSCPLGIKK

[4] = THP-1 cell cytotoxicity, dose response, cytotoxicity control for Vif-APOBEC3G degradation inhibitor project, THP-1 cells (AID 1117359); assay type: functional; conditions: Human immunodeficiency virus 1, THP-1
[5] = target: T1, Low molecular weight phosphotyrosine protein phosphatase (Homo sapiens, UniProt P24666); assay type: functional; conditions: read-out: IC50_Mean
T1 sequence (P24666 whole entry): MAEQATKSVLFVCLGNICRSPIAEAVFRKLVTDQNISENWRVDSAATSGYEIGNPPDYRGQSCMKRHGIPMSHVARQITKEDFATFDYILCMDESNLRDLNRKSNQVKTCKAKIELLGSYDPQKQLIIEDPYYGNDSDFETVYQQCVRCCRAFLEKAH

[6] = target: T1, Low molecular weight phosphotyrosine protein phosphatase; assay type: functional; conditions: read-out: IC50_Mean; remark: listed apart in the source
[7] = ARNT/TACC3 interaction disruptors, potency, confirmation, biochemical, AlphaScreen, cherry-picked samples (AID 651703); assay type: functional, Homo sapiens;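 also: His-tagged ARNT PAS-B domain paired with GST-TACC3 E629A dimer coactivator fragment; potency of inhibitors that break up the complex and lower AlphaScreen signal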
[8] = target: T2, Heat shock factor protein 1 (Mus musculus, UniProt P38532); assay: inhibition of MG132-induced HSE-luciferase signal, confirmation, cell-based, NIH3T3, luminescence, dose retest (AID 2382); assay type: functional;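 also: NIH3T3 fibroblasts with HSF1-driven luciferase reporter stressed by proteasome inhibitor MG132; luminescence from HSF1-driven luciferase expression after 8 hours of MG132 stress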
T2 sequence (P38532 whole entry): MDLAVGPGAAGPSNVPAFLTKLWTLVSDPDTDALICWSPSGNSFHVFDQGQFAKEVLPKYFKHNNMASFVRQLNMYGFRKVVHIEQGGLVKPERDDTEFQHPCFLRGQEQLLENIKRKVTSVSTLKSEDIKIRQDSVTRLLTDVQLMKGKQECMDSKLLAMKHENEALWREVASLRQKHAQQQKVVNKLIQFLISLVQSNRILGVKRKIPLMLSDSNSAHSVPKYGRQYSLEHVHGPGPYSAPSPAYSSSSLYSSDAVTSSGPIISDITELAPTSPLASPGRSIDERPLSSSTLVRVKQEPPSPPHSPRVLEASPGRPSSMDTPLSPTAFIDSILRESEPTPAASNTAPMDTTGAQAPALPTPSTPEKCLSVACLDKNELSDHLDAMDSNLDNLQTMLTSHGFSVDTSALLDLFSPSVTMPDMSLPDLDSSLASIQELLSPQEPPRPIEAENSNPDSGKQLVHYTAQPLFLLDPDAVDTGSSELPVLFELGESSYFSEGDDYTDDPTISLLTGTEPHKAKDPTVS

[9] = AlphaScreen signal interference compounds, dose response, artefact control for ARNT-TACC3 interaction inhibitor project, biochemical, luminescence, cherry-pick (AID 651705); assay type: functional;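 also: AlphaScreen bead proximity signal that flags compounds interfering with the detection technology; potency reflects signal decrease which marks the compound as an assay artifact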
[10] = target: Ras and Rab interactor 1/Tyrosine-protein kinase ABL1 (Homo sapiens, UniProt P00519+Q13671); assay type: functional;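 also: biochemical TR-FRET dose-response test measuring inhibition of binding between Rin1 and Abl proteins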
Chain of Ras and Rab interactor 1/Tyrosine-protein kinase ABL1 (P00519 whole entry, the tested form may be a part): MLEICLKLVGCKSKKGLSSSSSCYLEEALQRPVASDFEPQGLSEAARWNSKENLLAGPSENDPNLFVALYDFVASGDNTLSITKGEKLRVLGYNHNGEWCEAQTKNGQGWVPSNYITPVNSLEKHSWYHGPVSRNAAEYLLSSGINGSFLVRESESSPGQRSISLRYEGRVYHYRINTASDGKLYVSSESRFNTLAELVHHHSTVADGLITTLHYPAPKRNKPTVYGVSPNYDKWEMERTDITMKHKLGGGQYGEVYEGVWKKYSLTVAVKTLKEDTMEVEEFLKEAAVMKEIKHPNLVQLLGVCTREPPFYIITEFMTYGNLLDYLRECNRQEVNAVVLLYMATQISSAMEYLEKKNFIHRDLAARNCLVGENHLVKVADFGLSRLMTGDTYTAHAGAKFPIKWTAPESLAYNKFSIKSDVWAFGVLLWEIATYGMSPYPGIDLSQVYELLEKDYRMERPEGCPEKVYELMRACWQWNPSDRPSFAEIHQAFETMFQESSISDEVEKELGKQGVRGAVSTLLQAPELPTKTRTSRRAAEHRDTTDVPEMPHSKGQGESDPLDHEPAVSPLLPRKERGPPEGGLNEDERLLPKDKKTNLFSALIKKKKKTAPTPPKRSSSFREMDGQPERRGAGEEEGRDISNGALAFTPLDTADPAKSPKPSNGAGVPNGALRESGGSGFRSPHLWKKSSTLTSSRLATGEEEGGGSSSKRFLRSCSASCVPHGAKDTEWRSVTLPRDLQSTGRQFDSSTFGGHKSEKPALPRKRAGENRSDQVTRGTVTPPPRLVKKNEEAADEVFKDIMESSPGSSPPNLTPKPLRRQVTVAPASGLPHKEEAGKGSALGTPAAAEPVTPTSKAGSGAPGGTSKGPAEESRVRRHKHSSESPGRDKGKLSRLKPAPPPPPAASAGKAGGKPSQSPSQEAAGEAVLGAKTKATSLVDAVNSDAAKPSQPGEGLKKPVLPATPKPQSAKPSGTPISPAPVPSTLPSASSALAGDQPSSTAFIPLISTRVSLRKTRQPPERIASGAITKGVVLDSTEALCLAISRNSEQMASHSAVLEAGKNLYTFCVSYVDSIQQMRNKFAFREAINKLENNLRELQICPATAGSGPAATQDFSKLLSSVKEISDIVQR
Chain of Ras and Rab interactor 1/Tyrosine-protein kinase ABL1 (Q13671 whole entry, the tested form may be a part): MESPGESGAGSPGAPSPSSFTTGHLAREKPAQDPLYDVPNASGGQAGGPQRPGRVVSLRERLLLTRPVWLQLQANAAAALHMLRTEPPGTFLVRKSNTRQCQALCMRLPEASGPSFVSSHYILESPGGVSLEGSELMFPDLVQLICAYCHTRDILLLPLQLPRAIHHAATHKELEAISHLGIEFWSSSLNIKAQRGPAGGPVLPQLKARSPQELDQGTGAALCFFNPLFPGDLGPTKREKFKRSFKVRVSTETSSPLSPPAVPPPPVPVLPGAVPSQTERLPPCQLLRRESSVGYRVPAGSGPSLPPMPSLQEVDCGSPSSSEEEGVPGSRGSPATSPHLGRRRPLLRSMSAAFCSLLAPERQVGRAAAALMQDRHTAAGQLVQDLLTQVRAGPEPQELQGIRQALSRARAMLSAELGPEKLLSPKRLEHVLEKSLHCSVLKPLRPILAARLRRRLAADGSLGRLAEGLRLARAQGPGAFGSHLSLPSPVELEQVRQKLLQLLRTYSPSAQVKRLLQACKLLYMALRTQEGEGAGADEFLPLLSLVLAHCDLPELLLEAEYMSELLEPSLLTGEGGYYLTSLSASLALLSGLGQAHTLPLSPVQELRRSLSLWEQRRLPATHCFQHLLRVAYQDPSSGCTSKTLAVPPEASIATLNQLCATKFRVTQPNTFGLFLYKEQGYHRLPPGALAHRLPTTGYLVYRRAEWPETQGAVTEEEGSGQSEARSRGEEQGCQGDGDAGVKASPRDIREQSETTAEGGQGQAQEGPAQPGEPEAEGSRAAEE

[11] = target: T3, RNA-binding protein pos-1 (Caenorhabditis elegans, UniProt G5EF15); assay: inhibitors of POS-1/mex-3 RNA binding, dose response, biochemical, fluorescence polarization (AID 1964);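 also: purified POS-1 fused to maltose binding protein made in E. coli; potency of compounds blocking POS-1 binding to fluorescent RNA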
T3 sequence (G5EF15 whole entry): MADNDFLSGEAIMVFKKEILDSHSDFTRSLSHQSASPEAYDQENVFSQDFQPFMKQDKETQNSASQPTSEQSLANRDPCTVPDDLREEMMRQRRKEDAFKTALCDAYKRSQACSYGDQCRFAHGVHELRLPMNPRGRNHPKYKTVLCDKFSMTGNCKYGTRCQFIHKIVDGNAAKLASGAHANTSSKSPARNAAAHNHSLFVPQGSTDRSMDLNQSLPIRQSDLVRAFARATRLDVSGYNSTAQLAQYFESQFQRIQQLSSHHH

[12] = target: T4, Small ubiquitin-related modifier 1 (Homo sapiens, UniProt P63165); assay: inhibitors of SUMO1 partner interactions, dose response, biochemical, FRET (AID 624383); assay type: functional; conditions: read-out: IC50_Mean
T4 sequence (P63165 whole entry, the tested form may be a part): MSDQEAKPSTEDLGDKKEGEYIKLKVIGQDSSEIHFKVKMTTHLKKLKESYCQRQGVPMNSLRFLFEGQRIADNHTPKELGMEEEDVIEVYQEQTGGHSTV

[13] = target: T5, Carboxy-terminal domain RNA polymerase II polypeptide A small phosphatase 1 (Homo sapiens, UniProt Q9GZU7); assay: inhibitors of CTDSP1, concentration-response testing, biochemical assay, absorbance-based, actives from ultra-high-throughput screening (AID 540297); assay type: functional
T5 sequence (Q9GZU7 whole entry): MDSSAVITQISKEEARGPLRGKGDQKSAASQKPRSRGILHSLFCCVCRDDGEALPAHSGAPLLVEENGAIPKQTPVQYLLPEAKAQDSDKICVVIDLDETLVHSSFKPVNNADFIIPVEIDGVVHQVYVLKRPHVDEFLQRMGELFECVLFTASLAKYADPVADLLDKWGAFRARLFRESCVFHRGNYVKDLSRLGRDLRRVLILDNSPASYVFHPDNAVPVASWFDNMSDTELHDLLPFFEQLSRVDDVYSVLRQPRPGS

[14] = target: T4, Small ubiquitin-related modifier 1; assay: inhibitors of SUMO1 peptide binding, dose response, biochemical, fluorescence polarization, uHTS hits (AID 624382); assay type: functional; conditions: read-out: IC50_Mean
[15] = target: T6, Zinc finger protein mex-5 (Caenorhabditis elegans, UniProt Q9XUB2); assay: MEX-5/TCR-2 RNA interaction inhibitors, dose response, biochemical, C. elegans, fluorescence polarization (AID 1960)
T6 sequence (Q9XUB2 whole entry): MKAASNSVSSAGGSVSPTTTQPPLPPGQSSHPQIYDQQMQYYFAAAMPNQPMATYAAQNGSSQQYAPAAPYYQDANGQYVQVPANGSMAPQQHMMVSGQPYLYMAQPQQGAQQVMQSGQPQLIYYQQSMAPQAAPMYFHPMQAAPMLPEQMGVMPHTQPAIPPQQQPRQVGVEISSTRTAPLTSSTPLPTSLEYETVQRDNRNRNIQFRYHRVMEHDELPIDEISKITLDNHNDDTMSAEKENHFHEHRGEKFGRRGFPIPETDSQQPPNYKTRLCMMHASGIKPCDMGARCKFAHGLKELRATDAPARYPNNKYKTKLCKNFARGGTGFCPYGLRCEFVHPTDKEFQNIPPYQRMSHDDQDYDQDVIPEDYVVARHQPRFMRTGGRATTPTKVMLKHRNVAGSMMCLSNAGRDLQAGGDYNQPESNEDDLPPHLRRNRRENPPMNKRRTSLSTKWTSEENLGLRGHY

Chain of DNA dC->dU-editing enzyme APOBEC-3A (P31941 whole entry): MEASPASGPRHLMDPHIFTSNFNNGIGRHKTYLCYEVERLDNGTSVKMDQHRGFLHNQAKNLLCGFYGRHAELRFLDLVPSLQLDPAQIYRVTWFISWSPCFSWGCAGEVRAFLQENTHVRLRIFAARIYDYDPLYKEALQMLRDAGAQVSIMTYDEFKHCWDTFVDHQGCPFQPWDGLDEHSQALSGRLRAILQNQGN

For `O=C(CSc1nnc2scc(-c3ccccc3)n12)Nc1ccccc1F`, the IC50 [1] was > 99 µM (inactive) and the IC50 [2] was > 99 µM (inactive).

For `CCCn1c(=O)c2ccccc2n2c(SCC(=O)NCc3ccccc3)nnc12`, the IC50 [1] was > 99 µM (inactive) and the IC50 [2] was > 99 µM (inactive).

For `O=[N+]([O-])c1cc(Br)c(O)c(/C=N/c2ccc(N3CCOCC3)cc2)c1`, the EC50 [3] was > 104 µM (inactive) and the CC50 [4] was > 40 µM (active).

In the case of `CCOc1ccccc1Nc1nc(Cl)nc(Nc2ccccc2OCC)n1`, the IC50 [1] is reported as > 99 µM (inactive) and the IC50 [2] is reported as > 99 µM (inactive).

For `COCCNc1nc(NCc2ccc(NC(C)=O)cc2)c2sccc2n1`, the IC50 [5] was 17.5 µM (active) and the IC50 [6] was 15.4 µM (active).

In the case of `O=C(CN(Cc1ccccc1Cl)S(=O)(=O)c1ccc(Cl)cc1)N/N=C/c1ccc(C(=O)O)cc1`, the AC50 [7] is reported as 78.3 µM (active), the EC50 [8] is reported as > 195 µM (not active) and the AC50 [9] is reported as 84 µM (active).

In the case of `C[C@]12CC[C@H](O)C[C@@H]1CC(=O)[C@@H]1[C@@H]2CC[C@]2(C)C(=O)CC[C@@H]12`, the IC50 [10] is reported as 33.8 µM (inactive).

In the case of `C=CC1=C(C(=O)O)N2C(=O)[C@@H](NC(=O)/C(=N\O)c3csc(N)n3)[C@H]2SC1` (stereo in doubt), the EC50 [11] is reported as 49.8 µM (active), the IC50 [5] is reported as 19.6 µM (active) and the IC50 [12] is reported as 6.25 µM (active). For the same molecule, the IC50 [13] was 4.48 µM (active), the IC50 [14] was > 66.6 µM (inactive) and the IC50 [6] was 21.5 µM (inactive). For the same molecule, the EC50 [15] was 33.3 µM (active).
